Reference: patent US20080063643A1, “Peptide Derived From Hepatitis C Virus” (priority 2003, published 2008)

What was measured:
Type in all cases: binding, human
peptide-reactive IgG = experiment: ELISA of anti-C-35 and anti-NS5A-2132 antibody in cohort study sera of 1995 and 2002; conditions: serum dilution 100:1
Description: Sera were obtained from 33 patients with a disease associated with HCV in the cohort study conducted between 1995 and 2002. The sera obtained from patients with chronic hepatitis (CH, n=68), liver cirrhosis (LC, n=43) and hepatic cell carcinoma (HCC, n=52) were also used in the analysis. These patients were diagnosed at the time of the first serum sampling by biochemical and histological findings, echography and computed tomography. An anti-HCV antibody was assayed using a chemiluminescence enzyme immunoassay (CLEIA) kit (Lumipulse II HCV, Fujirebio Inc., Tokyo, Japan) or the second generation or the third generation enzyme immunoassay test (SRL, Tokyo, Japan). HCV-RNA in the sera was detected using RT-PCR (SRL, Tokyo, Japan). The HCV genotype was determined by directly sequencing HCV in the sera of the patients by RT-PCR (SRL, Tokyo, Japan). The sera were also obtained from subjects who were not infected with HCV, which include 24 subjects with an autoimmune disease (6 patients with systematic lupus erythematosus, one with Behcet's disease and 17 with atopic dermatitis), 17 cases of hepatitis B virus (HBV) infection (positive for HBV surface antigen), 3 patients having human immunodeficiency virus (HIV) and 10 cases with human T cell leukemia virus type I (HTLV-1) infection.
The level of peptide-specific IgG was measured by an enzyme-linked immunosorbent assay (ELISA). […]

peptide-specific IgG = experiment: Absorption and elution of peptide-specific IgG (Example 1); conditions: serum of the patient of FIG. 1
Description: One hundred microliters of a plasma or serum sample diluted with 0.05% Tween 20/Block Ace (registered trademark) was added to each well and allowed to be absorbed to the peptide (20 μg/well) coated on the well of the plate at 37° C. for 2 hours. After this procedure was repeated 3 times, the peptide-specific IgG level in the supernatant was measured by ELISA. The antibody bound to the peptide-coated plate in the initial adsorption step was eluted with 30 μl/well of 5 M NaCl/50 mM citrate buffer (pH 3.0) (neutralized with 0.05% Tween 20/Block Ace containing 1.0 M Tris-HCl (pH 7.5)), and the peptide-specific IgG level in the eluted fraction was measured by ELISA.

[1] = system: peptide-specific IgG in the serum; experiment: ELISA of peptide-specific IgG in sera of HCV patients and healthy donors (Example 1)
Outline: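 Sera from 12 HCV patients and 10 healthy donors, diluted 1:100–1:400, tested by ELISA on plates coated with DSS-crosslinked HLA-A2/A24-motif HCV 1b peptides (20 µg/well); HIV peptide as negative control. Incubated 2 h at 37 °C; detection via rabbit anti-human IgG, HRP-polymer anti-rabbit, TMB. Cutoff = healthy-donor mean OD ± 3 SD.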

YLLPRRGPRL [No. 40]
level of the anti-peptide antibody in 1995 compared with 2002 (peptide-reactive IgG; 33 cohort patients): almost equal
level of the anti-peptide antibody by group in 2002 (peptide-reactive IgG; CH, LC, HCC, recovered individuals, ASC): high in any of CH, LC, and HCC patients, and it became very low or undetectable in the recovered individuals
absorption of the antibody reactive to C-35 peptide by the peptide (peptide-specific IgG): absorbed by C-35
elution of the antibody reactive to C-35 peptide (peptide-specific IgG): eluted from the C-35-adsorbed fraction
IgG antibody reactive to the peptide in the serum of single patients ([1]; representative patients, FIGS. 1 and 2): detected
Healthy donors (n = 10) Positive % ([1]; share of 10 healthy donors with serum IgG reactive to the peptide, ELISA, cut-off value 1.83): 0%
HCV patients (n = 12) Positive % ([1]; share of 12 HCV patients with serum IgG reactive to the peptide, ELISA, cut-off value 1.83): 100%
